Data taken from ChEMBL document CHEMBL1153957, “Novel small molecule activators of beta-catenin-mediated signaling pathway: structure-activity relationships of indirubins” (Bioorg Med Chem Lett, 2009).
Calls of active or inactive are those of the source. The calls are words filed in the database; no cut-off is given here.

What was measured:
Format in all cases: cell-based
Conditions in all cases: Homo sapiens
[1] = Activation of Wnt signaling pathway in HEK293 cells assessed as increase in beta-catenin-mediated Tcf/Lef transcriptional activity at 250 nM after 24 hrs by dual luciferase reporter gene assay relative to control
[2] = Activation of Wnt signaling pathway in HEK293 cells assessed as increase in phosphorylation at Ser9 of GSK3-beta at 250 nM after 24 hrs by Western blot analysis
[3] = Activation of Wnt signaling pathway in HEK293 cells assessed as decrease in phosphorylation at Tyr216 of GSK3-beta at 250 nM after 24 hrs by Western blot analysis
[4] = Activation of Wnt signaling pathway in HEK293 cells assessed as decrease in phosphorylation at […]/37/Thr41 of […] at 250 nM after 24 hrs by Western blot analysis
[5] = Activation of Wnt signaling pathway in HEK293 cells assessed as increase in beta-catenin-mediated Tcf/Lef transcriptional activity after 24 hrs by dual luciferase reporter gene

Row | SMILES | fold change (FC) [1] | further results
1 | O=C1Nc2ccccc2/C1=C1/Nc2ccccc2C1=O | 2.04 | –
2 | O=Nc1c(-c2c(O)[nH]c3ccc([N+](=O)[O-])cc23)[nH]c2ccccc12 | 4.2 | Activity [2]: Active; Activity [3]: Active; Activity [4]: Active
3 | O=C1Nc2cc(Br)ccc2/C1=C1/Nc2ccccc2/C1=N\O | 2.7 | Activity [5]: Dose-dependent effect
4 | O=C1Nc2ccc(Cl)cc2/C1=C1/Nc2ccccc2/C1=N\O | 3.46 | –
5 | CC(C)(C)C(=O)Nc1ccc2c(c1)/C(=C1/Nc3ccccc3/C1=N\O)C(=O)N2 | 1.51 | –
6 | O=C1Nc2ccc([N+](=O)[O-])cc2/C1=C1/Nc2ccc(Br)cc2/C1=N/O | 1.66 | –
7 | CC(=O)Nc1ccc2c(c1)/C(=C1/Nc3ccccc3/C1=N\O)C(=O)N2 | 1.89 | –
